Assay results taken from PubChem BioAssay (NCI).
Where “and” joins values, the source holds several entries; their conditions need not be identical. Identical values can stand only once.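 Tested at 5 concentrations; 48 h exposure; 96-well plates; endpoints linearly interpolated, else capped at highest concentration. Here, GI50 denotes the concentration required for 50% inhibition of growth. TGI: concentration producing complete growth inhibition.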

Tests used:
Test in all cases: growth of human tumour cells (NCI), 48 h
HCC-2998 colon = system: HCC-2998 colon
HOP-92 NSCLC = system: HOP-92 NSCLC
HS 578T breast = system: HS 578T breast
HT29 colon = system: HT29 colon
IGROV1 ovarian = system: IGROV1 ovarian
MALME-3M melanoma = system: MALME-3M melanoma
SK-MEL-5 melanoma = system: SK-MEL-5 melanoma
U251 CNS = system: U251 CNS
UACC-257 melanoma = system: UACC-257 melanoma
UACC-62 melanoma = system: UACC-62 melanoma

SMILES | GI50 (HCC-2998 colon) | TGI (HCC-2998 colon) | GI50 (HOP-92 NSCLC) | TGI (HOP-92 NSCLC) | TGI (HS 578T breast) | GI50 (HT29 colon) | TGI (HT29 colon) | GI50 (IGROV1 ovarian) | TGI (IGROV1 ovarian) [µM] | GI50 (MALME-3M melanoma) | TGI (MALME-3M melanoma) | GI50 (SK-MEL-5 melanoma) | TGI (SK-MEL-5 melanoma) | GI50 (U251 CNS) | TGI (U251 CNS) [µM] | GI50 (UACC-257 melanoma) | TGI (UACC-257 melanoma) | GI50 (UACC-62 melanoma) [µM] | TGI (UACC-62 melanoma) [µM] | GI50 (HS 578T breast)
O=C1c2c(O)cc(O)cc2OC(c2ccc(O)cc2O)C1O (configuration not stated) | > 100 µM | > 100 µM | > 100 µM | > 100 µM | > 100 µM | > 100 µM | > 100 µM | > 100 µM | > 100 | > 100 µM | > 100 µM | > 100 µM | > 100 µM | > 100 µM | > 100 | > 100 µM | > 100 µM | > 100 | > 100 | 
CS(=O)(=O)CCNCc1ccc(-c2ccc3ncnc(Nc4ccc(OCc5ccccc5)c(Cl)c4)c3c2)o1 | 4.27 µM | 8.37 µM | 3.06 µM | 11.3 µM | 12.7 µM | 3.53 µM | 7.98 µM | 2.8 µM | > 21.4 | 5.18 µM | 10.4 µM | 2.98 µM | 6.08 µM | 5.02 µM | > 15.8 | 3.92 µM | 7.74 µM | 4.11 | 8.15 | 3.55 µM
O=C(O)c1ccc2c(c1)nc(Nc1cccc(Cl)c1)c1ccncc12 | 2.53 µM and 4.02 µM | 15.1 µM and > 10 µM | 0.325 µM and 0.445 µM | 3.77 µM and 4.06 µM | 3.88 µM and 6.21 µM | 5.48 µM and 6.26 µM | 33.3 µM and > 10 µM | 3.56 µM and 2.68 µM |  | 1.91 µM and 2.68 µM | 7.71 µM and > 10 µM | 1.86 µM and 2.08 µM | 4.76 µM and 5.38 µM | 1.82 µM and 1.38 µM |  | 3.88 µM and 2.68 µM | 20.3 µM and > 10 µM | 1.82 | 6.16 | 0.435 µM and 1.17 µM
CCc1nc(N)nc(N)c1-c1ccc(NCCc2ccccc2)c([N+](=O)[O-])c1 |  | 11.3 µM |  | 35.7 µM | > 75.4 µM |  | 22.4 µM |  | 47.8 |  | 9.74 µM |  | 10.1 µM |  | 47.3 |  | 26.2 µM |  | 15.8 | 
CN(C[C@@H]1COCCO1)S(=O)(=O)Nc1ccc2ccc3ncc(-c4cnn(C)c4)cc3c(=O)c2c1 | 59.6 µM | > 100 µM | 2.25 µM | > 30.3 µM | 6.16 µM | 19.7 µM | > 100 µM | 2.5 µM | > 100 | 5.43 µM | > 100 µM | 6.42 µM | > 100 µM | 2.34 µM | > 100 | > 100 µM | > 100 µM | 3.29 | > 100 | 1.35 µM
O=C(CCCCCCSc1nc(-c2ccc(Cl)cc2)cc(-c2ccc(Cl)cc2)n1)NO | 4.64 µM | 17 µM | 1.61 µM | 8.39 µM | > 50 µM | 1.41 µM | 7.46 µM | 1.7 µM | 12.8 | 1.16 µM | 4.45 µM | 1.19 µM | 2.74 µM | 1.63 µM | 6.08 | 2.15 µM | > 50 µM | 1.26 | 4.18 | 3.23 µM
CCCCCC/C=C\CCCCCCCCCC1=CC(=O)C=C(OC)C1=O |  | 27 µM |  | 8.05 µM | 41.7 µM |  | 11.8 µM |  | 3.86 |  | 29.4 µM |  | 5.54 µM |  | 13.6 |  | 9.11 µM |  | 16.9 | 
